“Also recorded” adds a separate entry of the source. Read-outs that look alike come from different tables or passages of the source.
Key:
[1] = target: xanthurenic acid receptor; assay: Competition protocol, IC50 determination against [3H]-XA binding on synaptic membranes
Method: Binding is carried out in 50 mM Pipes buffer pH 7.4 at 0° C. […] If the compound reversibly binds to the binding site of [^3H]-XA, the two ligands will compete with each other and a binding displacement curve for [^3H]-XA can be plotted against the concentration of the competitor molecule. The incubation time is 25 minutes, followed by filtration.

[2] = system: xanthurenic acid receptor; assay: Screening: displacement of [3H]-XA binding to synaptic membranes at a fixed concentration; settings: for % inhibition of XA binding at 10 μM*: compound at 10 μM; for % inhibition of XA binding at 10 μM* / % inhibition of XA binding at 50 μM*: 200 nM [3H]-XA, synaptic membranes, xanthurenic acid set arbitrarily to 100%; for % inhibition of XA binding at 50 μM*: compound at 50 μM
Method: If this concentration produces the same or greater displacement than the same concentration of non-radiolabelled XA, then an IC50 is determined. […] The incubation time is 25 min. […] The filters are placed in scintillation vials to which 5 ml of Rotiszint® (Roth) are added and the vials are counted in a Beckman LS6000sc liquid scintillation counter. Specific binding is given as the difference between total binding and nonspecific binding. The percentage inhibition of binding that the synthetic compounds produce is calculated for each compound in relation to its positive control.

[3] = system: xanthurenic acid receptor; assay: In vitro electrophysiology experiments, block of xanthurenic acid effects; format: cell-based
[4] = system: xanthurenic acid receptor; assay: In vivo studies of stereotypic behaviors, block of xanthurenic acid effects
[5] = two site binding model, second (higher) IC50, 200 nM [3H]-XA, synaptic membranes, read-out: IC50 (μM), second of two values
[6] = single value, inhibition of binding of 200 nM [3H]-XA, synaptic membranes, read-out: IC50

Row | Structure (SMILES) | IC50 [1, 5] [µM] | IC50 [1, 6] [µM] | % inhibition of XA binding at 10 μM* [2] [%] | % inhibition of XA binding at 50 μM* [2] [%] | also measured
1 | O=C(O)c1ccc2cccc(O)c2n1 | 12.3 | – | – | – | IC50 ([1]; two site binding model, first (lower) IC50, 200 nM [3H]-XA, synaptic membranes, read-out: IC50 (μM), first of two values): 0.09 µM
2 | O=C(O)c1cc(O)c2c(Cl)cc(Cl)c(O)c2n1 [Compound 3i, 4,8-dihydroxy-5,7-dichloro-quinoline-2-carboxylic acid] | – | 4.6 | 163 | 80 | –
3 | O=C(O)c1cc(O)c2cc(Br)cc(O)c2n1 [Compound 3k, 4,8-dihydroxy-6-bromo-quinoline-2-carboxylic acid] | – | 12 | – | – | –
4 | Nc1cccc2c(O)cc(C(=O)O)nc12 [Compound 3u, 4-hydroxy-8-amino-quinoline-2-carboxylic acid] | – | 14.6 | – | 106 | effect on xanthurenic acid effects in vitro (electrophysiology) [3]: blocks the effects of xanthurenic acid without displaying an intrinsic effect; effect on xanthurenic acid effects in vivo (stereotypic behaviors) [4]: blocks the effects of xanthurenic acid without displaying an intrinsic effect; effect on xanthurenic acid binding, in words [2]: quite potent inhibitor of xanthurenic acid binding; also recorded: potent inhibitors of XA binding to its site
5 | O=C(O)c1cc(O)c2cc(-c3ccccc3)cc(O)c2n1 [Compound 19f, 4,8-dihydroxy-6-pheenyl-quinoline-2-carboxylic acid] | – | 5.2 | 163.1 | – | –
6 | O=C(O)c1cc(O)c2cccc(O)c2n1 [Xanthurenic acid, reference compound] | 57 | – | 100 | 100 | IC50 ([1]; competition between [3H]-XA and non-radiolabelled XA, read-out: IC50, first site of two site binding model): 0.3 µM

Source: patent US20060183909A1, “Compositions derived from quinoline and quinoxaline, preparation and use thereof” (priority 2001, published 2006)
